The source of these data is patent US20150353495A1 (PORTOLA PHARMACEUTICALS, INC., priority 2010, published 2015).

The subject of assay [1] is JAK1/3 signaling to STAT6 in Ramos B cells. The assay can be described thus: IL4 stimulation of JAK1/3 signaling to STAT6 in Ramos B cells (pSTAT6 Y641, FACS). It is filed as cell-based. The settings on record: Homo sapiens; for inhibition at 0.2 µM: 0.2 uM compound, read-out: IL-4/STAT6 in Ramos Percent Inhibition at 0.2 uM; for inhibition at 1 µM: 1.0 uM compound, read-out: IL-4/STAT6 in Ramos Percent Inhibition at 1.0 uM. The gist of the method: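 Ramos cells in 10% FCS medium were pre-treated 1 h with compound, stimulated 15 min with 15 ng IL4, fixed in 2% paraformaldehyde and methanol-permeabilized. Intracellular phospho-STAT6 Y641 was stained with PE-conjugated antibody and quantified by flow cytometry.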

For assay [2], the system named is JAK1/3 signaling to STAT5 in primary T cells. The assay can be described thus: IL2 stimulation of JAK1/3 signaling to STAT5 in primary T cells (pSTAT5 Y694, FACS). Type of assay: cell-based. The settings on record: T-cell; for inhibition at 0.2 µM: 0.2 uM compound, read-out: IL-2/STAT5 Percent Inhibition at 0.2 uM; for inhibition at 1 µM: 1.0 μM compound, read-out: IL-2/STAT5 Percent Inhibition at 1.0 μM. The protocol: IL2 Stimulation of JAK1/3 Signaling to STAT5 in Primary T Cells:
The effect of JAK inhibitors on cytokine signaling pathways utilizing JAK3 was determined using an IL2 stimulation assay. IL2 engages a receptor complex that contains the IL2 receptor alpha and beta subunits, and the common gamma chain, to initiate activation of JAK1 and JAK3 leading to phosphorylation of STAT5 at tyrosine position 694. Lymphocytes are isolated from heparinized whole blood over a ficoll gradient, then resuspended in tissue culture media containing 10% fetal calf serum at 10×10̂6 cells/ml. 100 μl aliquots are pre-treated for 1 hour with various concentrations of compound, and then stimulated for 12 minutes with 100 U/ml IL2. The signaling reaction is terminated by fixing in 2% paraformaldehyde for 10 minutes at room temperature. Fixed cells are then washed and permeablized by suspension in 50% methanol (in PBS) at −80° C. Following overnight incubation at 4° C., cells are washed and resuspended in PBS containing 0.5% bovine serum albumin containing CD3-APC and pSTAT5 Y694-PE conjugated antibodies. After 1 hour incubation, cells are washed and the extent of STAT5 phosphorlyation in T cells is measured by FACS analysis.

A further assay concerns the target T1, JAK1 (Homo sapiens, UniProt P23458).
T1 construct: 5 μl of catalytic domain recombinant Kinase enzyme+Tyr peptide substrate (Invitrogen, CA); purchased Invitrogen
The assay can be described thus: Z'-LYTE kinase assay JAK1. Type of assay: biochemical. The gist of the method:
(§1)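 Catalytic-domain recombinant kinase was incubated with Tyr6 FRET peptide, ATP and compound (1% DMSO final) for 1 h at room temperature. Protease development followed for 1 h, cleaving only non-phosphorylated peptide. Inhibition of phosphorylation was read as coumarin/fluorescein FRET fluorescence.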

The next assay has as its target T2, JAK2 (Homo sapiens, UniProt O60674).
T2 construct: 5 μl of catalytic domain recombinant Kinase enzyme+Tyr peptide substrate (Invitrogen, CA); purchased Invitrogen
The assay is described as follows: Z'-LYTE kinase assay JAK2. Type of assay: biochemical. A digest of the protocol: as §1

A further assay deals with T3, JAK3 (Homo sapiens, UniProt P52333).
T3 construct: 5 μl of catalytic domain recombinant Kinase enzyme+Tyr peptide substrate (Invitrogen, CA); purchased Invitrogen
T3 sequence (P52333 822-1111 limits assumed): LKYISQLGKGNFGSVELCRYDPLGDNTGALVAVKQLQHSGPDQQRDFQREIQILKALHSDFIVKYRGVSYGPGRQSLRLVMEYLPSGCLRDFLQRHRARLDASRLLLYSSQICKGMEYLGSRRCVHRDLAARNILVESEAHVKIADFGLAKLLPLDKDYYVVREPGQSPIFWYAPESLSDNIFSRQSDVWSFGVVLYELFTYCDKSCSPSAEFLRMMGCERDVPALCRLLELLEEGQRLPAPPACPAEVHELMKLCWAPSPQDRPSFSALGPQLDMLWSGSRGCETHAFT
The assay can be described thus: Z'-LYTE kinase assay JAK3. It is filed as biochemical. A digest of the protocol: as §1

The target of another assay is T4, TYK2 (Homo sapiens, UniProt P29597).
T4 construct: 5 μl of catalytic domain recombinant Kinase enzyme+Tyr peptide substrate (Invitrogen, CA); purchased Invitrogen
T4 sequence (P29597 897-1176 limits assumed): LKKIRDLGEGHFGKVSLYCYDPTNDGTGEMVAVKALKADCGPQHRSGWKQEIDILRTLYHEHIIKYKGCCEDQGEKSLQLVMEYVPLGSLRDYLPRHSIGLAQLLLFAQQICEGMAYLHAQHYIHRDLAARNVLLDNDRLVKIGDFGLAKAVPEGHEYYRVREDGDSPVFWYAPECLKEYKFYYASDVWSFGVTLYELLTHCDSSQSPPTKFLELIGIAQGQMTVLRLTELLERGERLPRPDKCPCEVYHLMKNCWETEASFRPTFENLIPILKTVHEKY
The assay is described as follows: Z'-LYTE kinase assay TYK2. Type of assay: biochemical. The gist of the method: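 Recombinant catalytic-domain TYK2 with Tyr6 peptide in Z′-LYTE FRET format, 1% DMSO final, kinase reaction 1 h at room temperature, then protease development 1 h. Fluorescence read at 445/520 nm (excitation 400 nm), percent phosphorylation vs no-inhibitor control, IC50 from 4-parameter logistic fit.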

The structures appear in SMILES notation.

By IC50 is commonly meant the concentration needed to halve the response being measured. Low values mean higher potency, high ones lower potency.

T2 sequence (O60674 849-1124 limits assumed): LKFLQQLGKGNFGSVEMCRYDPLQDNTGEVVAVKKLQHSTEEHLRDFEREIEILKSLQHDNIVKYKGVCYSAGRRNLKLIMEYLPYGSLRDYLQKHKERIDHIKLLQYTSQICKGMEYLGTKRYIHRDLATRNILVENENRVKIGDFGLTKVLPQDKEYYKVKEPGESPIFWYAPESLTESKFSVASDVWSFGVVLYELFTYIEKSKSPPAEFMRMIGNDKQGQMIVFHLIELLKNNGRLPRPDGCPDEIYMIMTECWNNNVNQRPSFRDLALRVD
T1 sequence (P23458 875-1153 limits assumed): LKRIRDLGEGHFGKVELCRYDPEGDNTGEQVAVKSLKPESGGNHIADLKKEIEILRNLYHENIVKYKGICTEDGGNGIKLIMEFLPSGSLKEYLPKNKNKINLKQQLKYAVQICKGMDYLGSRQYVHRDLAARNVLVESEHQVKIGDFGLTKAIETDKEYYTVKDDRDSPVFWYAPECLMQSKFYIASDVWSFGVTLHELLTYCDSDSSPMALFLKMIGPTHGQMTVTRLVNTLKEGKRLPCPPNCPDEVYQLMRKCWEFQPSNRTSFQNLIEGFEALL

Turning to `CC(=O)N1CCN(c2ccc(Nc3cc(N[C@H](C)c4ccccc4)c(C(N)=O)cn3)cc2)CC1` [Example 7, (R)-6-(4-(4-acetylpiperazin-1-yl)phenylamino)-4-(1-phenylethylamino)nicotinamide], the figures for the inhibition at 0.2 µM in assay [1] and in assay [2] were 10% and 29%, respectively. In addition, the inhibition at 1 µM in assay [1] was 40%; in assay [2], 74%. Moreover, the half-maximal inhibitory concentration (IC50) on JAK1 was 100 to 1000 nM; against JAK2, 100 to 1000 nM; on JAK3, 1 to 10 nM; on TYK2, over 1000 nM.

`NC(=O)c1cnc(Nc2ccc(C(=O)N3CCCC3)cc2)cc1NCc1ccccc1` [Example 39, 4-(benzylamino)-6-(4-(pyrrolidine-1-carbonyl)phenylamino)nicotinamide]: the values for the inhibition at 0.2 µM in assay [1] and in assay [2] were 47% and 37%, respectively. Moreover, the inhibition at 1 µM in assay [1] worked out at 52%; in assay [2], 65%. For the same compound, the IC50 against JAK1 lay within 100 to 1000 nM; on JAK2 it was 100 to 1000 nM; at JAK3, 1 to 10 nM; against TYK2, 100 to 1000 nM.

Consider `NC(=O)c1cnc(Nc2cccc(OCCN3CCCC3)c2)cc1N[C@H](CO)c1ccccc1` [Example 59, (S)-4-(2-hydroxy-1-phenylethylamino)-6-(3-(2-(pyrrolidin-1-yl)ethoxy)phenylamino)nicotinamide], for which the figures for the inhibition at 0.2 µM in assay [1] and in assay [2] were 11% and 12%, respectively. The inhibition at 1 µM is 27% in assay [1] and 50% in assay [2]. Besides, the IC50 at JAK1 was over 1000 nM; against JAK2, 100 to 1000 nM; against JAK3, 1 to 10 nM; on TYK2, over 1000 nM.

`Cc1cc(Nc2cc(NCc3cccc(F)c3)c(C(N)=O)cn2)ccc1N1CCCC1=O` [Example 61, 4-(3-fluorobenzylamino)-6-(3-methyl-4-(2-oxopyrrolidin-1-yl)phenylamino)nicotinamide]: the values for the inhibition at 0.2 µM in assay [1] and in assay [2] were 40% and 39%, respectively. The results for the inhibition at 1 µM in assay [1] and in assay [2] were 60% and 67%, respectively. Also, the IC50 was in the range of 100 to 1000 nM at JAK1, 10 to 100 nM on JAK2, 1 to 10 nM at JAK3 and 100 to 1000 nM against TYK2.

Consider `NC(=O)c1cnc(Nc2ccc(F)cc2)cc1NCc1cccc2[nH]ccc12` [Example 319, 4-((1H-indol-4-yl)methylamino)-6-(4-fluorophenylamino)nicotinamide], for which the inhibition at 0.2 µM in assay [2] came to 81%. For the same compound, in assay [2], the inhibition at 1 µM was found to be 103%. The IC50 against JAK1 was 100 to 1000 nM; on JAK2, 100 to 1000 nM; at JAK3, 1 to 10 nM; at TYK2 it was 100 to 1000 nM.

Turning to `CS(=O)(=O)c1ccc(Nc2cc(NCc3cccc4[nH]ccc34)c(C(N)=O)cn2)cc1` [Example 320, 4-((1H-indol-4-yl)methylamino)-6-(4-(methylsulfonyl)phenylamino)nicotinamide], in assay [2], the inhibition at 0.2 µM is 90%. Also, the inhibition at 1 µM in assay [2] stood at 108%. The IC50 against JAK1 is 10 to 100 nM; at JAK2, 10 to 100 nM; against JAK3, 1 to 10 nM; on TYK2, 10 to 100 nM.

Turning to `NC(=O)c1cnc(Nc2ccc(OC(F)F)cc2)cc1NCc1cccc2[nH]ccc12` [Example 321, 4-((1H-indol-4-yl)methylamino)-6-(4-(difluoromethoxy)phenylamino)nicotinamide], in assay [2], the inhibition at 0.2 µM stood at 42%. Moreover, the inhibition at 1 µM in assay [2] turned out to be 94%. The IC50 is 100 to 1000 nM on JAK1, 100 to 1000 nM against JAK2, 10 to 100 nM on JAK3 and over 1000 nM on TYK2.

As to `NC(=O)c1cnc(Nc2ccc(OC(F)(F)F)cc2)cc1NCc1cccc2[nH]ccc12` [Example 322, 4-((1H-indol-4-yl)methylamino)-6-(4-(trifluoromethoxy)phenylamino)nicotinamide], the inhibition at 0.2 µM in assay [2] worked out at 27%. For the same compound, the inhibition at 1 µM in assay [2] worked out at 70%. For the same compound, the IC50 is over 1000 nM against JAK1, over 1000 nM against JAK2, 100 to 1000 nM at JAK3 and over 1000 nM at TYK2.

Regarding `CS(=O)(=O)Nc1cccc(Nc2cc(NCc3ccccc3)c(C(N)=O)cn2)c1` [Example 388], in assay [2], the inhibition at 0.2 µM amounted to 18%. For the same compound, the inhibition at 1 µM in assay [2] was determined as 55%. The IC50 was 100 to 1000 nM against JAK1, 100 to 1000 nM against JAK2, 1 to 10 nM against JAK3 and 100 to 1000 nM against TYK2.

Turning to `CS(=O)(=O)Nc1ccc(Nc2cc(NCc3ccccc3)c(C(N)=O)cn2)cc1` [Example 389], in assay [2], the inhibition at 0.2 µM worked out at 56%. The inhibition at 1 µM in assay [2] was determined as 88%. Besides, the IC50 on JAK1 was 100 to 1000 nM; at JAK2, 100 to 1000 nM; on JAK3, 1 to 10 nM; on TYK2, 100 to 1000 nM.

Turning to `CCC(=O)N1CCN(c2ccc(Nc3cc(NCc4cccc(F)c4F)c(C(N)=O)cn3)cc2)CC1` [Example 435, 4-(2,3-difluorobenzylamino)-6-(4-(4-propionylpiperazin-1-yl)phenylamino)nicotinamide], in assay [2], the inhibition at 0.2 µM was 63%. Besides, the inhibition at 1 µM in assay [2] was determined as 102%. In addition, the IC50 at JAK1 is 100 to 1000 nM; at JAK2, 10 to 100 nM; on JAK3, 1 to 10 nM; against TYK2, 100 to 1000 nM.

For `Cc1cc(Nc2cc(NCc3cccc4ccsc34)c(C(N)=O)cn2)ccc1C(=O)N1CCC1` [Example 457, 6-(4-(azetidine-1-carbonyl)-3-methylphenylamino)-4-(benzo[b]thiophen-7-ylmethylamino)nicotinamide], the inhibition at 0.2 µM in assay [2] was determined as 56%. Moreover, the inhibition at 1 µM in assay [2] was 100%. Also, the IC50 at JAK1 is 100 to 1000 nM; at JAK2 it was 10 to 100 nM; against JAK3, under 1 nM; against TYK2 it was 100 to 1000 nM.

For the compound `Cc1cc(Nc2cc(NCc3cccc4ccsc34)c(C(N)=O)cn2)ccc1C(=O)N1CCCC1` [Example 458, 4-(benzo[b]thiophen-7-ylmethylamino)-6-(3-methyl-4-(pyrrolidine-1-carbonyl)phenylamino)nicotinamide], in assay [2], the inhibition at 0.2 µM turned out to be 49%. Besides, in assay [2], the inhibition at 1 µM is 104%. Further, the IC50 lay within 100 to 1000 nM against JAK1, 10 to 100 nM against JAK2, 1 to 10 nM against JAK3 and 10 to 100 nM against TYK2.

With `Cc1cc(Nc2cc(NCc3cccc4[nH]ccc34)c(C(N)=O)cn2)ccc1C(=O)N1CCCC1` [Example 461, 4-((1H-indol-4-yl)methylamino)-6-(3-methyl-4-(pyrrolidine-1-carbonyl)phenylamino)nicotinamide], in assay [2], the inhibition at 0.2 µM worked out at 94%. In addition, in assay [2], the inhibition at 1 µM was determined as 101%. Besides, the IC50 at JAK1 was 1 to 10 nM; against JAK2 it was under 1 nM; against JAK3, under 1 nM; against TYK2, 1 to 10 nM.

For `Cc1cc(Nc2cc(NCc3cccc4cc[nH]c34)c(C(N)=O)cn2)ccc1C(=O)N1CCCC1` [Example 464, 4-((1H-indol-7-yl)methylamino)-6-(3-methyl-4-(pyrrolidine-1-carbonyl)phenylamino)nicotinamide], the inhibition at 0.2 µM in assay [2] was 22%. In addition, the inhibition at 1 µM in assay [2] came out at 55%. Further, the half-inhibitory concentration (IC50) against JAK1 was over 1000 nM; against JAK2, 10 to 100 nM; on JAK3, 1 to 10 nM; on TYK2 it was over 1000 nM.
